Measurements taken from US20260226493A1, “HERBICIDE RESISTANT PLANTS” (SYNGENTA CROP PROTECTION AG, priority 2023, published 2026).

Legend:
Assay in all cases: BIO3-BIO1 mutant enzyme activity in the presence of herbicide, percentage inhibition (fluorometric DAPA assay)
Format in all cases: biochemical
Settings in all cases: read-out: percentage inhibition
[1] = target: T1, Arabidopsis thaliana BIO3-BIO1 (BioDA) mutants (Arabidopsis thaliana, UniProt B0F481, P510C)
T1 construct: with the predicted N-terminal mitochondrial transit peptide removed; 6xHis-tag (N); thrombin cleavage site (N); made in house; host or cells: E. coli BL21 (DE3) bioA
Summary of the method: (§1)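 His-tagged Arabidopsis BIO3-BIO1 mutants, expressed in E. coli and purified by IMAC and SEC, were preincubated at 50 nM with herbicide for 10 min at 20 °C in EPPS pH 8.6 with pyridoxal phosphate. Reaction with 100 μM spermidine and 20 μM KAPA ran 75 min at 20 °C; DAPA was derivatised with o-phthalaldehyde and read at ex 410/em 470 nm. […].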

[2] = target: T2, Arabidopsis thaliana BIO3-BIO1 (BioDA) mutants (Arabidopsis thaliana, UniProt B0F481, T512V)
T2 construct: with the predicted N-terminal mitochondrial transit peptide removed; 6xHis-tag (N); thrombin cleavage site (N); made in house; host or cells: E. coli BL21 (DE3) bioA
Summary of the method: as §1

[3] = target: T3, Arabidopsis thaliana BIO3-BIO1 (BioDA) mutants (Arabidopsis thaliana, UniProt B0F481, S509T)
T3 construct: with the predicted N-terminal mitochondrial transit peptide removed; 6xHis-tag (N); thrombin cleavage site (N); made in house; host or cells: E. coli BL21 (DE3) bioA
Summary of the method: as §1

[4] = target: T4, Arabidopsis thaliana BIO3-BIO1 (BioDA) mutants (Arabidopsis thaliana, UniProt B0F481, A609I)
T4 construct: with the predicted N-terminal mitochondrial transit peptide removed; 6xHis-tag (N); thrombin cleavage site (N); made in house; host or cells: E. coli BL21 (DE3) bioA
Summary of the method: as §1

[5] = target: T5, Arabidopsis thaliana BIO3-BIO1 (BioDA) mutants (Arabidopsis thaliana, UniProt B0F481, S704H)
T5 construct: with the predicted N-terminal mitochondrial transit peptide removed; 6xHis-tag (N); thrombin cleavage site (N); made in house; host or cells: E. coli BL21 (DE3) bioA
Summary of the method: as §1

[6] = target: T6, Arabidopsis thaliana BIO3-BIO1 (BioDA) mutants (Arabidopsis thaliana, UniProt B0F481, W392G)
T6 construct: with the predicted N-terminal mitochondrial transit peptide removed; 6xHis-tag (N); thrombin cleavage site (N); made in house; host or cells: E. coli BL21 (DE3) bioA
Summary of the method: as §1

[7] = target: T7, Arabidopsis thaliana BIO3-BIO1 (BioDA) mutants (Arabidopsis thaliana, UniProt B0F481, T512W)
T7 construct: with the predicted N-terminal mitochondrial transit peptide removed; 6xHis-tag (N); thrombin cleavage site (N); made in house; host or cells: E. coli BL21 (DE3) bioA
Summary of the method: as §1

[8] = target: T8, Arabidopsis thaliana BIO3-BIO1 (BioDA) mutants (Arabidopsis thaliana, UniProt B0F481, Q517D)
T8 construct: with the predicted N-terminal mitochondrial transit peptide removed; 6xHis-tag (N); thrombin cleavage site (N); made in house; host or cells: E. coli BL21 (DE3) bioA
Summary of the method: as §1

[9] = target: T9, Arabidopsis thaliana BIO3-BIO1 (BioDA) mutants (Arabidopsis thaliana, UniProt B0F481, S509I)
T9 construct: with the predicted N-terminal mitochondrial transit peptide removed; 6xHis-tag (N); thrombin cleavage site (N); made in house; host or cells: E. coli BL21 (DE3) bioA
Summary of the method: as §1

[10] = target: T10, Arabidopsis thaliana BIO3-BIO1 (BioDA) mutants (Arabidopsis thaliana, UniProt B0F481, F348S)
T10 construct: with the predicted N-terminal mitochondrial transit peptide removed; 6xHis-tag (N); thrombin cleavage site (N); made in house; host or cells: E. coli BL21 (DE3) bioA
Summary of the method: as §1

[11] = target: T11, Arabidopsis thaliana BIO3-BIO1 (BioDA) mutants (Arabidopsis thaliana, UniProt B0F481, Q516C)
T11 construct: with the predicted N-terminal mitochondrial transit peptide removed; 6xHis-tag (N); thrombin cleavage site (N); made in house; host or cells: E. coli BL21 (DE3) bioA
Summary of the method: as §1

[12] = target: T12, Arabidopsis thaliana BIO3-BIO1 (BioDA) mutants (Arabidopsis thaliana, UniProt B0F481, C388M)
T12 construct: with the predicted N-terminal mitochondrial transit peptide removed; 6xHis-tag (N); thrombin cleavage site (N); made in house; host or cells: E. coli BL21 (DE3) bioA
Summary of the method: as §1

T2 sequence (B0F481 23-833 T512V): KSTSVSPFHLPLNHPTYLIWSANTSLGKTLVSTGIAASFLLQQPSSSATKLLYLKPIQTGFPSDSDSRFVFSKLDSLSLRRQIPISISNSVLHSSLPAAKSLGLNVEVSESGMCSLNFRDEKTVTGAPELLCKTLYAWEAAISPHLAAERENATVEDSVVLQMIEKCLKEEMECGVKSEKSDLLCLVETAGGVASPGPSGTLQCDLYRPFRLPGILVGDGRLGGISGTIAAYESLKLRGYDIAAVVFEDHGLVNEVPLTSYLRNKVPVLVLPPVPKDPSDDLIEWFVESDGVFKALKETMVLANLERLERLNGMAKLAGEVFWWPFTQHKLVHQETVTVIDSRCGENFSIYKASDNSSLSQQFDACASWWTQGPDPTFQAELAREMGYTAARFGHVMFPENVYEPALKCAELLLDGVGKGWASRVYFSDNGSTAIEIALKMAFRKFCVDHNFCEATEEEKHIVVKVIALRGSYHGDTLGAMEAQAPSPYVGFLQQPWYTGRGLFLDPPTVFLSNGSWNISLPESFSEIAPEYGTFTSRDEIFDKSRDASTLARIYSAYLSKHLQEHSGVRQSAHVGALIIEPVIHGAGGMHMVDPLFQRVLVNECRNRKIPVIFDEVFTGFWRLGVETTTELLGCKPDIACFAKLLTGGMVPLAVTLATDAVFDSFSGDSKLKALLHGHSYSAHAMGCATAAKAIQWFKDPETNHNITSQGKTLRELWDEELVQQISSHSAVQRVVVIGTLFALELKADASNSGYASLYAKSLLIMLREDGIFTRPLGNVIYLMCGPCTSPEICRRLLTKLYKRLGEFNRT
T11 sequence (B0F481 23-833 Q516C): as the sequence (B0F481 23-833 T512V) above, with V490T, Q494C counted along it
T10 sequence (B0F481 23-833 F348S): as the sequence (B0F481 23-833 T512V) above, with F326S, V490T counted along it
T9 sequence (B0F481 23-833 S509I): as the sequence (B0F481 23-833 T512V) above, with S487I, V490T counted along it
T4 sequence (B0F481 23-833 A609I): as the sequence (B0F481 23-833 T512V) above, with V490T, A587I counted along it
T1 sequence (B0F481 23-833 P510C): as the sequence (B0F481 23-833 T512V) above, with P488C, V490T counted along it
T5 sequence (B0F481 23-833 S704H): as the sequence (B0F481 23-833 T512V) above, with V490T, S682H counted along it
T3 sequence (B0F481 23-833 S509T): as the sequence (B0F481 23-833 T512V) above, with S487T, V490T counted along it
T6 sequence (B0F481 23-833 W392G): as the sequence (B0F481 23-833 T512V) above, with W370G, V490T counted along it
T12 sequence (B0F481 23-833 C388M): as the sequence (B0F481 23-833 T512V) above, with C366M, V490T counted along it
T8 sequence (B0F481 23-833 Q517D): as the sequence (B0F481 23-833 T512V) above, with V490T, Q495D counted along it
T7 sequence (B0F481 23-833 T512W): as the sequence (B0F481 23-833 T512V) above, with V490W counted along it

Row | Structure (SMILES) | inhibition at 1 µM [1] | inhibition at 1 µM [2] | inhibition at 1 µM [3] | inhibition at 1 µM [4] | inhibition at 1 µM [5] | inhibition at 1 µM [6] | inhibition at 1 µM [7] | inhibition at 1 µM [8] | inhibition at 1 µM [9] | inhibition at 1 µM [10] | inhibition at 1 µM [11] | inhibition at 1 µM [12] | inhibition at 0.2 µM [1] | inhibition at 5 µM [1] | inhibition at 0.2 µM [2] | inhibition at 5 µM [2] | inhibition at 0.2 µM [3] | inhibition at 5 µM [3] | inhibition at 0.2 µM [4] | inhibition at 5 µM [4] | also measured
1 | CCOC(=O)c1nn(-c2ccc3c(c2)OC(F)(F)C(F)(F)O3)c2cccc(C(C)=O)c2c1=O [Compound A, ethyl 5-acetyl-4-oxo-1-(2,2,3,3-tetrafluoro-1,4-benzodioxin-6-yl)cinnoline-3-carboxylate] | 20% | 58% | 77% | 24% | 0% | 56% | 0% | 22% | 0% | 3% | 83% | 31% | – | – | – | – | – | – | – | – | –
2 | CCn1c(C)c(-c2ccc(F)cc2F)c(=O)c(C(=O)O)c1-c1ccc(Cl)c(Cl)c1 [Compound C, 2-(3,4-dichlorophenyl)-5-(2,4-difluorophenyl)-1-ethyl-6-methyl-4-oxo-pyridine-3-carboxylic acid] | 53% | 81% | 50% | 24% | 0% | 20% | 83% | 0% | 84% | 7% | 95% | 17% | 13% | 78% | 51% | 96% | 5% | 89% | 7% | 42% | inhibition at 0.2 µM [5]: 0%; inhibition at 5 µM [5]: 0%; inhibition at 0.2 µM [6]: 0%; inhibition at 5 µM [6]: 69%; inhibition at 0.2 µM [7]: 50%; inhibition at 5 µM [7]: 95%; inhibition at 0.2 µM [8]: 0%; inhibition at 5 µM [8]: 0%; inhibition at 0.2 µM [9]: 38%; inhibition at 5 µM [9]: 99%; inhibition at 0.2 µM [10]: 9%; inhibition at 5 µM [10]: 22%; inhibition at 0.2 µM [11]: 74%; inhibition at 5 µM [11]: 99%; inhibition at 0.2 µM [12]: 20%; inhibition at 5 µM [12]: 69%
3 | CCn1c(Cn2ccc(C(F)(F)F)n2)cc(=O)c(C(=O)O)c1-c1ccc(Cl)c(Cl)c1 [Compound L, 2-(3,4-dichlorophenyl)-1-ethyl-4-oxo-6-[[3-(trifluoromethyl)pyrazol-1-yl]methyl]pyridine-3-carboxylic acid] | – | – | – | – | – | – | – | – | – | – | – | – | – | – | – | – | – | – | – | – | inhibition at 0.01 µM [1]: 0%; inhibition at 0.075 µM [1]: 38%; inhibition at 0.5 µM [1]: 77%; inhibition at 0.01 µM [4]: 29%; inhibition at 0.075 µM [4]: 20%; inhibition at 0.5 µM [4]: 0%; inhibition at 0.01 µM [8]: 0%; inhibition at 0.075 µM [8]: 0%; inhibition at 0.5 µM [8]: 0%; inhibition at 0.01 µM [10]: 7%; inhibition at 0.075 µM [10]: 3%; inhibition at 0.5 µM [10]: 32%; inhibition at 0.01 µM [11]: 44%; inhibition at 0.075 µM [11]: 77%; inhibition at 0.5 µM [11]: 95%; inhibition at 0.01 µM [12]: 10%; inhibition at 0.075 µM [12]: 18%; inhibition at 0.5 µM [12]: 34%
4 | CCn1c(-c2ccc(Cl)c(Cl)c2)c(C(=O)O)c(=O)c2cc(F)ccc21 [Compound M, 2-(3,4-dichlorophenyl)-1-ethyl-6-fluoro-4-oxo-quinoline-3-carboxylic acid] | 36% | 77% | 69% | 0% | 0% | 7% | 55% | 2% | 65% | 4% | 88% | 24% | 9% | 69% | 57% | 94% | 9% | 95% | 2% | 78% | inhibition at 0.2 µM [5]: 0%; inhibition at 5 µM [5]: 0%; inhibition at 0.2 µM [6]: 0%; inhibition at 5 µM [6]: 12%; inhibition at 0.2 µM [7]: 33%; inhibition at 5 µM [7]: 83%; inhibition at 0.2 µM [8]: 6%; inhibition at 5 µM [8]: 0%; inhibition at 0.2 µM [9]: 30%; inhibition at 5 µM [9]: 92%; inhibition at 0.2 µM [10]: 6%; inhibition at 5 µM [10]: 25%; inhibition at 0.2 µM [11]: 64%; inhibition at 5 µM [11]: 97%; inhibition at 0.2 µM [12]: 16%; inhibition at 5 µM [12]: 41%
